From US20230271938A1, “BENZIMIDAZOLES FOR USE IN THE TREATMENT OF CANCER AND INFLAMMATORY DISEASES” (Capella Therapeutics, Inc., priority 2015, published 2023)
pIC50: −log10 of the molar value.

Assays:
[1] = target: T1, TEC (Homo sapiens, UniProt P42680); experiment: Inhibition of TEC kinase; assay type: binding; conditions: 1% DMSO
T1 sequence (P42680 1-631): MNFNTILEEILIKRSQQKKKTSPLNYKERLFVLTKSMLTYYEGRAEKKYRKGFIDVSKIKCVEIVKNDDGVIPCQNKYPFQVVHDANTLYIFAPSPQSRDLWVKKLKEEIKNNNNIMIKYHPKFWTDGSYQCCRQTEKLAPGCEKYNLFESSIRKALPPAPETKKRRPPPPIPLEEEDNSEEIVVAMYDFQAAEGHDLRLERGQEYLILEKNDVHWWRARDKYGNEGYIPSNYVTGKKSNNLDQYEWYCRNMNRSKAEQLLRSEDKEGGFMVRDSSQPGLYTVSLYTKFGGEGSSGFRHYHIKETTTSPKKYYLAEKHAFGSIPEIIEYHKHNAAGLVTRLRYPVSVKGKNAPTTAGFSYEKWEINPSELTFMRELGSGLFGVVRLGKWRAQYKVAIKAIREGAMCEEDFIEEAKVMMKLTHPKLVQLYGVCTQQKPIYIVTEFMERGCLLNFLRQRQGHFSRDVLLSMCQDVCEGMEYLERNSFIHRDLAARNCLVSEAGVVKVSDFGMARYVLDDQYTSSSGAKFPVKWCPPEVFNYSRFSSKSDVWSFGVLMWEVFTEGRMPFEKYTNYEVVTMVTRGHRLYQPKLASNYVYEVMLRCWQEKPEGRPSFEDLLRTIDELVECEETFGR
Protocol: Binding of an ALEXA FLUOR® conjugate or “tracer” to a kinase is detected by addition of a Eu-labeled anti-tag antibody. Binding of the tracer and antibody to a kinase results in a high degree of FRET, whereas displacement of the tracer with a kinase inhibitor results in a loss of FRET. An inhibitory activity of a compound is thus determined from the extent of the FRET signal loss. Inhibition of ITK and TEC kinases by a test compound is determined in the presence of 1% DMSO.
(§1) Inhibition of BMX, BTK, PIK3C-D, ITK, TEC, and TXK kinases by compound A2 was measured using one of the assays described in Examples 2A and 3A.

[2] = tested on: H1975 human NSCLC adenocarcinoma cells (drug-resistant mutant ERBB1, T790M in-cis with L858R); experiment: Cell proliferation assay, H1975; assay type: cell-based
Protocol: The biological activity of a test compound was determined using cell proliferation assays. The activity against wild-type ERBB 1 was determined using A431 human epidermoid carcinoma cells (ATCC) and human epidermal keratinocytes, neonatal, or HEKn cells (ATCC).
A431 cells were grown in DMEM (Invitrogen) supplemented with 10% FBS (Lonza), 1% penicillin-streptomycin, and 2 mM glutamine (Invitrogen). HEKn cells were grown in EPILIFE® (Invitrogen) supplemented with HKGS (Invitrogen). HCC827 and H1975 were cultured in RPMI1640 supplemented with 10% FBS (Lonza), 1% penicillin-streptomycin, and 2 mM glutamine (Invitrogen). Cells were maintained and propagated at 37° C. and 5% CO2 in a humidified cell culture incubator. Aliquots of cells from early passages were preserved for liquid nitrogen storage. Frozen vials of cells were thawed at 37° C. water bath. Cells were spun to remove freezing medium. The newly revived frozen cells were adapted in culture for 10 days before used for compound testing. Cells used in the assay were less than 20 subculture passages or 3 months in culture.
The test compounds were dissolved in dimethylsulfoxide (DMSO) and stored at -20° C. before testing. […] The cells were placed in a culture incubator overnight. Next day, test compounds in DMSO were added to the cells and placed back in the culture incubator for 72 hrs. In the meantime, the cell numbers at time zero of the compound treatment (T0) was measured by ENERCOUNT® (Codex BioSolutions). At the end of the compound treatment, the cell numbers were again measured by EnerCount as T72 values. The untreated controls (Ctrl) were cell numbers recorded from the 0.1% DMSO treatment. The percent growth inhibition by the test compound was calculated by the formula: (1- (T72-T0)/(Ctrl-T0)) x 100.
The results are summarized in Tables 1 and 2, wherein A represents a value no greater than 500 nM, B represents a value greater than 500 nM but no greater than 1 µM, C represents a value greater than 1 µM but no greater than 5 µM, and D represents a value greater than 5 µM; and wherein A′ represents a ratio of greater than 10, B′ represents a ratio of no greater than 10 but no less than 5, C′ represents a ratio of no greater than 5 but no less than 2, and D′ represents a ratio of no greater than 2.

[3] = target: PIK3C-D (Homo sapiens, UniProt O00329); experiment: Inhibition of PIK3C-D kinase; assay type: biochemical
Text: The Z′-LYTE® biochemical assay is a fluorescence-based, coupled-enzyme assay based on the differential sensitivity of phosphorylated and non-phosphorylated peptides to proteolytic cleavage. A peptide substrate for a kinase is labeled with two fluorophores, one at each end, to form a FRET pair.
In the primary reaction, the kinase transfers the gamma-phosphate of ATP to a single tyrosine, serine, or threonine residue in the synthetic FRET-peptide substrate. In the secondary reaction, a site-specific protease recognizes and cleaves non-phosphorylated FRET-peptides. Cleavage disrupts FRET between the donor and acceptor fluorophores on the FRET-peptide, whereas uncleaved, phosphorylated FRET-peptides maintain FRET. An inhibitory activity of a compound is thus determined from its effect on the cleavage of the synthetic FRET-peptide substrate.
Binding of an ALEXA FLUOR® conjugate or “tracer” to a kinase is detected by addition of a Eu-labeled anti-tag antibody. […] An inhibitory activity of a compound is thus determined from the extent of the FRET signal loss. Inhibition of ITK and TEC kinases by a test compound is determined in the presence of 1% DMSO.
as §1

PIK3C-D, sequence (O00329 whole entry): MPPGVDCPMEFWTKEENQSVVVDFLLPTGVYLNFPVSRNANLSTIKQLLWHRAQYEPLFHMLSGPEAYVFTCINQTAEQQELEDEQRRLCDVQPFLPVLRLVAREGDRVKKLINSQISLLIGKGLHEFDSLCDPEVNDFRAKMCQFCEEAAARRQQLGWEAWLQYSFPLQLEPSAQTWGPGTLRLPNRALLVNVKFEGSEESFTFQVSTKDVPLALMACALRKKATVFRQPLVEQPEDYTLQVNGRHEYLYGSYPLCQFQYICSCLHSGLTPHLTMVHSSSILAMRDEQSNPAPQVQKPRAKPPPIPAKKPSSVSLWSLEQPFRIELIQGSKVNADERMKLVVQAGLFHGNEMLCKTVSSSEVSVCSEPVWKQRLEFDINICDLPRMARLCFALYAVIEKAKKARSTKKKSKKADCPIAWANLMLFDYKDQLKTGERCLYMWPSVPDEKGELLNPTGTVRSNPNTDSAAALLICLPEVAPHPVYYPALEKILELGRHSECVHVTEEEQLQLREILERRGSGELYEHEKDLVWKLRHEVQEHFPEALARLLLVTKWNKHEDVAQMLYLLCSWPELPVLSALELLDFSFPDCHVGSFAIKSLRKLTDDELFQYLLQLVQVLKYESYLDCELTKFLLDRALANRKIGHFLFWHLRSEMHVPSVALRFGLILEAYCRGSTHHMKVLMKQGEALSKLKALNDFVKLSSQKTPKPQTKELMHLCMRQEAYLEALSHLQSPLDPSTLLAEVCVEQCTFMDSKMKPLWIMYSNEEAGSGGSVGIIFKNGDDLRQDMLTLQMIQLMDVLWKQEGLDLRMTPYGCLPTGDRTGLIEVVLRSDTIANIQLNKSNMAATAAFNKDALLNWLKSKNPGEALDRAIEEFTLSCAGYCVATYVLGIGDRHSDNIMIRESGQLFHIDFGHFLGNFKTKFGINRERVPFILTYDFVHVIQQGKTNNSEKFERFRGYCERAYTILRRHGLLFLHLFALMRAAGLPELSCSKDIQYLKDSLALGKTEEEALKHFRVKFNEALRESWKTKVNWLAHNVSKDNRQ
PIK3C-D, sequence (P27986 whole entry partner): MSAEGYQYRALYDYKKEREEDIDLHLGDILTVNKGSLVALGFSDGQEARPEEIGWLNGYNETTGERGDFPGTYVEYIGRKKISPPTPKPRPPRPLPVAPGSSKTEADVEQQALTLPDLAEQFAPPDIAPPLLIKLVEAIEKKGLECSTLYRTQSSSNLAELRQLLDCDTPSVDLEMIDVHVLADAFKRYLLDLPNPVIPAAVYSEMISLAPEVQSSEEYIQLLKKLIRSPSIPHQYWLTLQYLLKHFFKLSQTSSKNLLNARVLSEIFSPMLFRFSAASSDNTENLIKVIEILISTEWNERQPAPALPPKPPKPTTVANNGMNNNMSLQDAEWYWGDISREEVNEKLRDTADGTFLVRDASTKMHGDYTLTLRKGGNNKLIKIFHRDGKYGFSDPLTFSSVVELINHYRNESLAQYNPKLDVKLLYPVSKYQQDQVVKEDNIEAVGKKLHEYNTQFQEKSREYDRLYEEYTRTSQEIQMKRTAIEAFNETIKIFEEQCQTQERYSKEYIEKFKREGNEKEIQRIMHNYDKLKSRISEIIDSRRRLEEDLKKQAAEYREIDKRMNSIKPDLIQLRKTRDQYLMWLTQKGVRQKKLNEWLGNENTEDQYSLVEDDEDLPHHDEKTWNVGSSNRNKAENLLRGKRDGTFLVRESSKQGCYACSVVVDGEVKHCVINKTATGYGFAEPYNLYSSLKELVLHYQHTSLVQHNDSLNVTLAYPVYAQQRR

pIC50 [1]: ≥ 8.00
GI50 ([2]; Homo sapiens, NCI-H1975, H1975 cells, 72 hrs): < 0.5 µM
pIC50 [3]: ≥ 8.00
SMILES: C=CC(=O)N1CCCC[C@@H](n2c(NC(=O)c3ccnc(C)c3)nc3cccc(OC4CCN(C(C)=O)CC4)c32)C1 [Compound A2, (R)-N-(7-((1-acetylpiperidin-4-yl)oxy)-1-(1-acryloylazepan-3-yl)-1H-benzo[d]imidazol-2-yl)-2-methylisonicotinamide]
Inhibition [1]: A (A represents a value no greater than 10 nM or no less than 90% inhibition)
Ratio (Wild-type ERBB1/Mutant ERBB1) A431/H1975 ([2]; GI50 ratio A431/H1975): B′ (B′ represents a ratio of no greater than 10 but no less than 5)
Ratio (Wild-type ERBB1/Mutant ERBB1) HEKn/H1975 ([2]; GI50 ratio HEKn/H1975): A′ (A′ represents a ratio of greater than 10)
Inhibition [3]: A (A represents a value no greater than 10 nM or no less than 90% inhibition)
